Laboratory results: ChEMBL document CHEMBL1201862, “PubChem BioAssay data set” (2004)
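Five compound concentrations were applied to cells in 96-well plates for 48 hours; endpoints were derived by simple linear interpolation of the resulting dose-response curve. The concentration for 50% growth inhibition is given as GI50.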 Calls of active or inactive are those of the source. Cut-off read from the data, not from the text of the source: active = GI50 up to about 1.1 µM and inactive = higher.

How the values were obtained:
Experiment in all cases: NCI anticancer screen, dose series, 48 h
SF-539 = tested on: SF-539
HOP-92 = tested on: HOP-92
LOX IMVI = tested on: LOX IMVI
Hs-578T = tested on: Hs-578T
NCI-H460 = tested on: NCI-H460
NCI-H226 = tested on: NCI-H226
OVCAR-8 = tested on: OVCAR-8
BT-549 = tested on: BT-549
786-0 = tested on: 786-0
SF-268 = tested on: SF-268
HCT-15 = tested on: HCT-15
A549 = tested on: A549
KM12 = tested on: KM12
PC-3 = tested on: PC-3
SK-OV-3 = tested on: SK-OV-3
TK-10 = tested on: TK-10
OVCAR-5 = tested on: OVCAR-5
HL-60 = tested on: HL-60
UO-31 = tested on: UO-31
RXF 393 = tested on: RXF 393
IGROV-1 = tested on: IGROV-1
MOLT-4 = tested on: MOLT-4
SNB-75 = tested on: SNB-75
SN12C = tested on: SN12C
ACHN = tested on: ACHN
SNB-19 = tested on: SNB-19
NCI-H23 = tested on: NCI-H23
RPMI-8226 = tested on: RPMI-8226
OVCAR-3 = tested on: OVCAR-3
SW-620 = tested on: SW-620
K562 = tested on: K562
SK-MEL-28 = tested on: SK-MEL-28
UACC-62 = tested on: UACC-62
HT-29 = tested on: HT-29
A498 = tested on: A498
U-251 = tested on: U-251
M14 = tested on: M14
SR = tested on: SR
NCI/ADR-RES = tested on: NCI/ADR-RES
CAKI-1 = tested on: CAKI-1
EKVX = tested on: EKVX
HCC 2998 = tested on: HCC 2998
MCF7 = tested on: MCF7
OVCAR-4 = tested on: OVCAR-4
CCRF-CEM = tested on: CCRF-CEM
SK-MEL-5 = tested on: SK-MEL-5
MDA-MB-435 = tested on: MDA-MB-435
Malme-3M = tested on: Malme-3M
UACC-257 = tested on: UACC-257
MDA-MB-231 = tested on: MDA-MB-231
NCI-H522 = tested on: NCI-H522
SK-MEL-2 = tested on: SK-MEL-2
COLO 205 = tested on: COLO 205
T47D = tested on: T47D
HOP-62 = tested on: HOP-62
DU-145 = tested on: DU-145
SF-295 = tested on: SF-295
HCT-116 = tested on: HCT-116
MDA-N = tested on: MDA-N

With `CCNCCNC(=O)c1ccc(I)cc1` the GI50 (SF-539) was > 100 µM (inactive), the GI50 (HOP-92) was 99.8 µM (inactive) and the GI50 (LOX IMVI) was > 100 µM (inactive). The GI50 (Hs-578T) was 81.8 µM (inactive), the GI50 (NCI-H460) was > 100 µM (inactive) and the GI50 (NCI-H226) was 6.22 µM (inactive). For the same compound, the GI50 (OVCAR-8) was > 100 µM (inactive), the GI50 (BT-549) was > 100 µM (inactive) and the GI50 (786-0) was > 100 µM (inactive). For the same compound, the GI50 (SF-268) was > 100 µM (inactive), the GI50 (HCT-15) was over 100 µM and the GI50 (A549) was > 100 µM (inactive). The GI50 (KM12) was > 100 µM (inactive), the GI50 (PC-3) was > 100 µM (inactive) and the GI50 (SK-OV-3) was > 100 µM (inactive). The GI50 (TK-10) was > 100 µM (inactive), the GI50 (OVCAR-5) was > 100 µM (inactive) and the GI50 (HL-60) was > 100 µM (inactive). The GI50 (UO-31) was 58.6 µM (inactive), the GI50 (RXF 393) was > 100 µM (inactive) and the GI50 (IGROV-1) was > 100 µM (inactive). For the same compound, the GI50 (MOLT-4) was > 100 µM (inactive), the GI50 (SNB-75) was 34.4 µM (inactive) and the GI50 (SN12C) was > 100 µM (inactive). The GI50 (ACHN) was > 100 µM (inactive), the GI50 (SNB-19) was > 100 µM (inactive) and the GI50 (NCI-H23) was > 100 µM (inactive). The GI50 (RPMI-8226) was > 100 µM (inactive), the GI50 (OVCAR-3) was > 100 µM (inactive) and the GI50 (SW-620) was > 100 µM (inactive). The GI50 (K562) was > 100 µM (inactive), the GI50 (SK-MEL-28) was > 100 µM (inactive) and the GI50 (UACC-62) was > 100 µM (inactive). The GI50 (HT-29) was > 100 µM (inactive), the GI50 (A498) was > 100 µM (inactive) and the GI50 (U-251) was > 100 µM (inactive). For the same compound, the GI50 (M14) was > 100 µM (inactive), the GI50 (SR) was > 100 µM (inactive) and the GI50 (NCI/ADR-RES) was > 100 µM (inactive). The GI50 (CAKI-1) was > 100 µM (inactive), the GI50 (EKVX) was > 100 µM (inactive) and the GI50 (HCC 2998) was > 100 µM (inactive). For the same compound, the GI50 (MCF7) was > 100 µM (inactive), the GI50 (OVCAR-4) was > 100 µM (inactive) and the GI50 (CCRF-CEM) was > 100 µM (inactive). For the same compound, the GI50 (SK-MEL-5) was > 100 µM (inactive).
With `CCCCCCNCCCNc1c2cc(OC)ccc2nc2cccc([N+](=O)[O-])c12` the GI50 (SF-539) was 0.29 µM (active), the GI50 (HOP-92) was 0.136 µM (active) and the GI50 (LOX IMVI) was 0.134 µM (active). The GI50 (Hs-578T) was 0.299 µM (active), the GI50 (NCI-H460) was 0.0336 µM (active) and the GI50 (NCI-H226) was 0.257 µM (active). For the same compound, the GI50 (MDA-MB-435) was 0.143 µM (active), the GI50 (BT-549) was 0.809 µM (active) and the GI50 (786-0) was 0.0834 µM (active). For the same compound, the GI50 (SF-268) was 0.0731 µM (active), the GI50 (HCT-15) was 0.198 µM and the GI50 (A549) was 0.0578 µM (active). For the same compound, the GI50 (KM12) was 0.144 µM (active), the GI50 (PC-3) was 0.144 µM (active) and the GI50 (SK-OV-3) was 0.627 µM (active). The GI50 (TK-10) was 0.131 µM (active), the GI50 (OVCAR-5) was 0.135 µM (active) and the GI50 (HL-60) was 0.214 µM (active). For the same compound, the GI50 (UO-31) was 0.188 µM (active), the GI50 (RXF 393) was 0.0245 µM (active) and the GI50 (IGROV-1) was 0.0119 µM (active). The GI50 (MOLT-4) was 0.112 µM (active), the GI50 (SNB-75) was 0.298 µM (active) and the GI50 (SN12C) was 0.0787 µM (active). For the same compound, the GI50 (Malme-3M) was 0.0304 µM (active), the GI50 (UACC-257) was 0.366 µM (active) and the GI50 (ACHN) was 0.14 µM (active). The GI50 (MDA-MB-231) was 0.055 µM (active), the GI50 (SNB-19) was 0.369 µM (active) and the GI50 (NCI-H23) was 0.124 µM (active). For the same compound, the GI50 (RPMI-8226) was < 0.0289 µM (active), the GI50 (OVCAR-3) was 0.0966 µM (active) and the GI50 (SW-620) was < 0.0233 µM (active). The GI50 (NCI-H522) was < 19.5 nM (active), the GI50 (K562) was 0.103 µM (active) and the GI50 (SK-MEL-28) was 0.208 µM (active). The GI50 (SK-MEL-2) was 76.4 nM (active), the GI50 (COLO 205) was 0.139 µM (active) and the GI50 (UACC-62) was 0.143 µM (active). For the same compound, the GI50 (HT-29) was 0.0326 µM (active), the GI50 (T47D) was 109 nM (active) and the GI50 (A498) was 1.62 µM (inactive). The GI50 (HOP-62) was 0.0908 µM (active), the GI50 (U-251) was 0.131 µM (active) and the GI50 (DU-145) was 0.0413 µM (active). The GI50 (M14) was 0.143 µM (active), the GI50 (SR) was 0.0173 µM (active) and the GI50 (NCI/ADR-RES) was 0.658 µM (active). For the same compound, the GI50 (CAKI-1) was 0.211 µM (active), the GI50 (SF-295) was 0.0865 µM (active) and the GI50 (EKVX) was 0.0986 µM (active). The GI50 (HCC 2998) was 0.0203 µM (active), the GI50 (MCF7) was 0.212 µM (active) and the GI50 (OVCAR-4) was 0.113 µM (active). For the same compound, the GI50 (CCRF-CEM) was 0.0403 µM (active), the GI50 (HCT-116) was 0.036 µM (active) and the GI50 (SK-MEL-5) was < 0.0385 µM (active).
With `O=C1CCCC2=C1CC1=C(CCCC1=O)N2c1ccc(Cl)cc1` the GI50 (SF-539) was > 100 µM (inactive), the GI50 (LOX IMVI) was > 100 µM (inactive) and the GI50 (Hs-578T) was > 100 µM (inactive). The GI50 (MDA-N) was > 100 µM (inactive), the GI50 (NCI-H460) was > 100 µM (inactive) and the GI50 (NCI-H226) was > 100 µM (inactive). For the same compound, the GI50 (MDA-MB-435) was > 100 µM (inactive), the GI50 (OVCAR-8) was 97.1 µM (inactive) and the GI50 (BT-549) was > 100 µM (inactive). The GI50 (786-0) was > 100 µM (inactive), the GI50 (SF-268) was > 100 µM (inactive) and the GI50 (HCT-15) was over 100 µM. For the same compound, the GI50 (A549) was > 100 µM (inactive), the GI50 (KM12) was > 100 µM (inactive) and the GI50 (PC-3) was > 100 µM (inactive). The GI50 (SK-OV-3) was > 100 µM (inactive), the GI50 (TK-10) was > 100 µM (inactive) and the GI50 (OVCAR-5) was > 100 µM (inactive). The GI50 (HL-60) was 28.1 µM (inactive), the GI50 (UO-31) was > 100 µM (inactive) and the GI50 (RXF 393) was > 100 µM (inactive). For the same compound, the GI50 (IGROV-1) was > 100 µM (inactive), the GI50 (MOLT-4) was 94.6 µM (inactive) and the GI50 (SNB-75) was > 100 µM (inactive). For the same compound, the GI50 (SN12C) was > 100 µM (inactive), the GI50 (Malme-3M) was > 100 µM (inactive) and the GI50 (UACC-257) was > 100 µM (inactive). For the same compound, the GI50 (ACHN) was > 100 µM (inactive), the GI50 (MDA-MB-231) was > 100 µM (inactive) and the GI50 (SNB-19) was > 100 µM (inactive). For the same compound, the GI50 (NCI-H23) was > 100 µM (inactive), the GI50 (RPMI-8226) was > 100 µM (inactive) and the GI50 (OVCAR-3) was > 100 µM (inactive). The GI50 (SW-620) was > 100 µM (inactive), the GI50 (K562) was > 100 µM (inactive) and the GI50 (SK-MEL-28) was > 100 µM (inactive). For the same compound, the GI50 (COLO 205) was > 100 µM (inactive), the GI50 (UACC-62) was > 100 µM (inactive) and the GI50 (HT-29) was > 100 µM (inactive). For the same compound, the GI50 (A498) was > 100 µM (inactive), the GI50 (HOP-62) was > 100 µM (inactive) and the GI50 (U-251) was > 100 µM (inactive). For the same compound, the GI50 (DU-145) was > 100 µM (inactive), the GI50 (M14) was > 100 µM (inactive) and the GI50 (SR) was 50.1 µM (inactive). The GI50 (NCI/ADR-RES) was > 100 µM (inactive), the GI50 (CAKI-1) was > 100 µM (inactive) and the GI50 (SF-295) was > 100 µM (inactive). The GI50 (EKVX) was > 100 µM (inactive), the GI50 (HCC 2998) was > 100 µM (inactive) and the GI50 (MCF7) was > 100 µM (inactive). The GI50 (OVCAR-4) was > 100 µM (inactive), the GI50 (CCRF-CEM) was 69.7 µM (inactive) and the GI50 (HCT-116) was > 100 µM (inactive). For the same compound, the GI50 (SK-MEL-5) was > 100 µM (inactive).
